Data reported in ChEMBL document CHEMBL1125711, “Flavins as potential antimalarials. 2. 3-Methyl-10-(substituted-phenyl) flavins” (J Med Chem, 1991).

Tests used:
[1] = tested on: Plasmodium vinckei vinckei; assay: Antimalarial activity against Plasmodium vinckei V52 on 30 mg/kg intraperitoneal dose; format: functional
Mus musculus [2] = assay: Increase in mean survival days was determined in mice after ip administration of 30 mg/kg; format: functional; conditions: route intraperitoneal
Mus musculus [3] = assay: Antimalarial activity was evaluated against Plasmodium vinckei V52 after intraperitoneal administration at dose 50 mg/kg; format: functional
Mus musculus [4] = assay: Increase in mean survival days was determined in mice after ip administration of 50 mg/kg; toxic; format: functional; conditions: route intraperitoneal
[5] = tested on: Plasmodium vinckei vinckei; assay: Antimalarial activity against Plasmodium vinckei V52 on 10 mg/kg intraperitoneal dose; format: functional
Mus musculus [6] = assay: Increase in mean survival days was determined in mice after ip administration of 40 mg/kg; format: functional; conditions: route intraperitoneal
Mus musculus [7] = assay: Antimalarial activity was evaluated against Plasmodium vinckei V52 after intraperitoneal administration at dose 40 mg/kg; format: functional
Mus musculus [8] = assay: Increase in mean survival days was determined in mice after ip administration of 10 mg/kg; format: functional; conditions: route intraperitoneal
Mus musculus [9] = assay: (§1) Increase in mean survival days was determined in mice after ip administration of 70 mg/kg; toxic; format: functional; conditions: route intraperitoneal
[10] = tested on: Plasmodium vinckei vinckei; assay: Antimalarial activity against Plasmodium vinckei V52 on 70 mg/kg intraperitoneal dose; format: functional
Mus musculus [11] = organism: Mus musculus; assay: Effective dose required to obtain a parasitaemia of 40% 48 hours after treatment in mice; format: functional
Mus musculus [12] = assay: Antimalarial activity was evaluated against Plasmodium vinckei V52 after intraperitoneal administration at dose 60 mg/kg; format: functional
[13] = tested on: Plasmodium vinckei vinckei; assay: Antimalarial activity against Plasmodium vinckei V52 after 20 mg/kg intraperitoneal dose; format: functional
Mus musculus [14] = assay: Increase in mean survival days was determined in mice after ip administration of 50 mg/kg; format: functional; conditions: route intraperitoneal
Mus musculus [15] = assay: Increase in mean survival days was determined in mice after ip administration of 60 mg/kg; format: functional; conditions: route intraperitoneal
Mus musculus [16] = assay: as §1; format: ADME, organism-based; set-up: dose 70 mg/kg, route intraperitoneal; conditions: in vivo
Mus musculus [17] = assay: Antimalarial activity was evaluated against Plasmodium vinckei vinckei V52 after intraperitoneal administration at dose 50 mg/kg; format: functional
Mus musculus [18] = assay: Increase in mean survival days was determined in mice after ip administration of 40 mg/kg; toxic; format: functional; conditions: route intraperitoneal
[19] = tested on: Plasmodium vinckei vinckei; assay: Antimalarial activity against Plasmodium vinckei V52 after 30 mg/kg intraperitoneal dose
Mus musculus [20] = assay: Antimalarial activity was evaluated against Plasmodium vinckei vinckei V52 after intraperitoneal administration at dose 40 mg/kg; format: functional
Mus musculus [21] = assay: Antimalarial activity was evaluated against Plasmodium vinckei V52 after intraperitoneal administration at dose 10 mg/kg; format: functional
Mus musculus [22] = assay: Antimalarial activity was evaluated against Plasmodium vinckei vinckeii V52 after intraperitoneal administration at dose 15 mg/kg; format: functional
Mus musculus [23] = assay: Antimalarial activity was evaluated against Plasmodium vinckei vinckeii V52 after intraperitoneal administration at dose 40 mg/kg; format: functional
Mus musculus [24] = assay: Increase in mean survival days was determined in mice after ip administration of 15 mg/kg; format: functional; conditions: route intraperitoneal
Mus musculus [25] = assay: Antimalarial activity was evaluated against Plasmodium vinckei V52 after intraperitoneal administration at dose 70 mg/kg; format: functional
Mus musculus [26] = assay: Antimalarial activity was evaluated against Plasmodium vinckei vinckeii V52 after intraperitoneal administration at dose 60 mg/kg; format: functional
Mus musculus [27] = assay: Antimalarial activity was evaluated against Plasmodium vinckei vinckeii V52 after intraperitoneal administration at dose 50 mg/kg; format: functional
Mus musculus [28] = assay: Antimalarial activity was evaluated against Plasmodium vinckei V52 after intraperitoneal administration at dose 30 mg/kg; format: functional
Mus musculus [29] = assay: Antimalarial activity was evaluated against Plasmodium vinckei vinckei V52 after intraperitoneal administration at dose 50 mg/kg.; format: functional
Mus musculus [30] = assay: Antimalarial activity was evaluated against Plasmodium vinckei V52 after intraperitoneal administration at dose 25 mg/kg; format: functional
Mus musculus [31] = assay: Antimalarial activity was evaluated against Plasmodium vinckei V52 after intraperitoneal administration at dose 15 mg/kg; format: functional
Mus musculus [32] = assay: Antimalarial activity was evaluated against Plasmodium vinckei vinckei V52 after intraperitoneal administration at dose 40 mg/kg.; format: functional
Mus musculus [33] = assay: Increase in mean survival days was determined in mice after ip administration of 20 mg/kg; format: functional; conditions: route intraperitoneal
[34] = tested on: Plasmodium vinckei vinckei; assay: Increase in mean survival days of Plasmodium inoculated mice (Mus musculus) after 70 mg/Kg intraperitoneal dose; format: functional
Mus musculus [35] = organism: Mus musculus; assay: Effective dose required to obtain a parasitaemia of 40% 48 hours after treatment in mice.; format: functional
Mus musculus [36] = assay: Antimalarial activity was evaluated against Plasmodium vinckei V52 after intraperitoneal administration at dose 20 mg/kg; format: functional
Mus musculus [37] = assay: Antimalarial activity was evaluated against Plasmodium vinckei vinckei V52 after intraperitoneal administration at dose 60 mg/kg; format: functional
Mus musculus [38] = assay: Antimalarial activity was evaluated against Plasmodium vinckei vinckei V52 after intraperitoneal administration at dose 25 mg/kg; format: functional
Mus musculus [39] = assay: Increase in mean survival days was determined in mice after ip administration of 25 mg/kg; toxic; format: functional; conditions: route intraperitoneal
Mus musculus [40] = assay: Increase in mean survival days was determined in mice after ip administration of 20 mg/kg; toxic; format: functional; conditions: route intraperitoneal
Mus musculus [41] = assay: Antimalarial activity was evaluated against Plasmodium vinckei vinckei V52 after intraperitoneal administration at dose 30 mg/kg; format: functional
Mus musculus [42] = assay: Increase in mean survival days was determined in mice after ip administration of 30 mg/kg; toxic; format: functional; conditions: route intraperitoneal

SMILES	Cured [1] [%]	Mean survival days (Mus musculus [2]) [days]	Cured [5] [%]	Mean survival days (Mus musculus [8]) [days]	Mean survival days (Mus musculus [9]) [days]	Cured [10] [%]	ED40 (Mus musculus [11]) [µmol/kg]	Cured [13] [%]	Mean survival days (Mus musculus [14]) [days]	Mean survival days (Mus musculus [15]) [days]	Cured (Mus musculus [25]) [%]	also measured
Cn1c(=O)nc2n(-c3ccc(S(C)(=O)=O)cc3)c3ccccc3nc-2c1=O	0	0.2	0	0	-2	0	–	–	–	–	–	Cured (Mus musculus [3]): 0%; Mean survival days (Mus musculus [4]): -0.8 days; Mean survival days (Mus musculus [6]): -0.5 days; Cured (Mus musculus [7]): 0%
COc1ccc(-n2c3nc(=O)n(C)c(=O)c-3nc3ccccc32)cc1	–	0.4	0	0	–	60	138	0	2	1	–	Cured (Mus musculus [12]): 80%; Cured (Mus musculus [3]): 80%; Mean survival days (Mus musculus [6]): 1 days; Cured (Mus musculus [7]): 20%; Mean survival days (Mus musculus [16]): -0.5 days
Cc1ccc(-n2c3nc(=O)n(C)c(=O)c-3nc3ccccc32)c(C)c1	–	1.3	0	0.4	-2	0	–	–	–	–	–	Mean survival days (Mus musculus [4]): -2 days; Cured (Mus musculus [17]): 0%; Mean survival days (Mus musculus [18]): -1.7 days; Cured [19]: 20%; Cured (Mus musculus [20]): 40%
Cn1c(=O)nc2n(-c3cccc(Br)c3)c3ccccc3nc-2c1=O	–	0	–	0	–	–	–	–	1	-1	100	Cured (Mus musculus [21]): 0%; Cured (Mus musculus [22]): 0%; Cured (Mus musculus [23]): 0%; Mean survival days (Mus musculus [6]): 0 days; Mean survival days (Mus musculus [24]): 0 days; Cured (Mus musculus [26]): 80%; Cured (Mus musculus [27]): 80%; Cured (Mus musculus [28]): 0%
Cn1c(=O)nc2n(-c3cc(Cl)ccc3Cl)c3ccccc3nc-2c1=O	0	0	0	0	–	–	–	–	–	–	0	Mean survival days (Mus musculus [16]): -0.6 days
Cn1c(=O)nc2n(-c3ccc(Cl)cc3)c3ccccc3nc-2c1=O	100	–	20	0.3	-1	0	38.8	100	–	–	–	Cured (Mus musculus [29]): 20%; Cured (Mus musculus [23]): 100%; Mean survival days (Mus musculus [4]): -0.8 days; Cured (Mus musculus [30]): 100%; Mean survival days (Mus musculus [24]): 4 days; Cured (Mus musculus [31]): 80%
Cn1c(=O)nc2n(-c3ccc(F)cc3)c3ccccc3nc-2c1=O	80	0	0	0	-0.6	0	103	0	-0.5	–	–	Cured (Mus musculus [32]): 80%; Mean survival days (Mus musculus [33]): 13.4 days; Cured (Mus musculus [3]): 20%; Mean survival days (Mus musculus [6]): 0 days; Mean survival days (Mus musculus [24]): 0 days; Cured (Mus musculus [31]): 0%
Cn1c(=O)nc2n(-c3ccccc3)c3ccccc3nc-2c1=O	0	0	0	0	–	60	–	–	0.3	0.5	–	Mean survival days [34]: 1 days; ED40 (Mus musculus [35]): 248 nM/kg; Cured (Mus musculus [12]): 20%; Cured (Mus musculus [3]): 0%
Cn1c(=O)nc2n(-c3cccc([N+](=O)[O-])c3)c3ccccc3nc-2c1=O	–	–	–	–	–	–	–	–	–	1	0	Cured (Mus musculus [21]): 0%; Mean survival days [34]: -0.5 days; Cured (Mus musculus [26]): 0%; Cured (Mus musculus [28]): 0%
Cn1c(=O)nc2n(-c3cc(C(F)(F)F)cc(C(F)(F)F)c3)c3ccccc3nc-2c1=O	–	0	–	0	–	–	–	–	0	–	0	Cured (Mus musculus [21]): 0%; Mean survival days [34]: 0 days; Mean survival days (Mus musculus [33]): 0 days; Cured (Mus musculus [36]): 0%; Cured (Mus musculus [27]): 0%; Cured (Mus musculus [28]): 0%
Cn1c(=O)nc2n(-c3cccc(C(F)(F)F)c3)c3ccccc3nc-2c1=O	100	–	33	1.4	7.5	–	79.3	100	–	10	0	Cured (Mus musculus [37]): 40%; Cured (Mus musculus [38]): 100%; Cured (Mus musculus [17]): 100%; Cured (Mus musculus [31]): 100%; Cured (Mus musculus [20]): 100%
CCc1ccccc1-n1c2nc(=O)n(C)c(=O)c-2nc2ccccc21	–	–	0	0	–	–	–	0	–	–	–	Mean survival days (Mus musculus [39]): -2 days; Mean survival days (Mus musculus [40]): -2 days; Cured (Mus musculus [38]): 0%
Cc1cc(Cl)cc(-n2c3nc(=O)n(C)c(=O)c-3nc3ccccc32)c1	–	–	0	0.2	–	100	85.7	–	–	–	–	Mean survival days (Mus musculus [33]): 1 days; Cured (Mus musculus [41]): 100%; Mean survival days (Mus musculus [24]): 0.5 days; Cured (Mus musculus [38]): 100%; Cured (Mus musculus [17]): 100%; Cured (Mus musculus [36]): 80%; Cured (Mus musculus [31]): 60%; Cured (Mus musculus [20]): 100%
Cc1ccccc1-n1c2nc(=O)n(C)c(=O)c-2nc2ccccc21	0	–	0	-0.2	–	–	–	0	–	–	–	Mean survival days (Mus musculus [42]): -2 days; Mean survival days (Mus musculus [40]): -1 days
COc1cc(OC)cc(-n2c3nc(=O)n(C)c(=O)c-3nc3ccccc32)c1	–	0	0	0	–	100	219	0	0	3	–	Cured (Mus musculus [37]): 20%; Cured (Mus musculus [17]): 0%
